Laboratory results taken from patent publication US20230092163A1, “COMPOUNDS AND COMPOSITIONS FOR TREATING CONDITIONS ASSOCIATED WITH STING ACTIVITY” (IFM Due, Inc., priority 2019, published 2023).

Molecular target: STING (Homo sapiens, UniProt Q86WV6, G230A/H232R/R293Q/R71H)
Test: STING reporter assay: THP1-Dual KO-IFNAR2 cells stimulated with 2′3′cGAMP, luciferase reporter activity
Format: cell-based
Settings: 15 μM 2′3′cGAMP, 24h
Procedure, shortened: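 THP1-Dual KO-IFNAR2 cells (2×10E6 cells/mL) treated with compounds at 0.0017-100 μM, then stimulated with 2′3′cGAMP (15 μM final) delivered by Lipofectamine 2000; 24 h at 37° C. Supernatant luciferase read by QUANTI-Luc Plus luminescence; EC50 from dose-response.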

Sequence of STING (Q86WV6 whole entry R71H/G230A/H232R/R293Q): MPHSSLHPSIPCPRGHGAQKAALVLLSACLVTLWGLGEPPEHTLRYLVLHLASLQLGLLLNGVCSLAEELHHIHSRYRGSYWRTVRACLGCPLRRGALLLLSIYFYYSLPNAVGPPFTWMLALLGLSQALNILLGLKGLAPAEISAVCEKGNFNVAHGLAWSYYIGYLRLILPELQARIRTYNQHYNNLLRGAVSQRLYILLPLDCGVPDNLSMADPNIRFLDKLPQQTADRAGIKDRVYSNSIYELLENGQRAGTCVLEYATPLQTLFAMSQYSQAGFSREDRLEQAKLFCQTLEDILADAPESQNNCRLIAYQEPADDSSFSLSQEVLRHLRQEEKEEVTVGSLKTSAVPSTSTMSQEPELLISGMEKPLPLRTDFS

Row | EC50 (numeric bounds) [µM] | EC50 (class symbols) [µM] | Compound
1 | > 30 | – | CCOc1ccc(-c2cc(NC(=O)Nc3ccc4[nH]ccc4c3)on2)cc1 [Compound 297]
2 | > 100 | – | CCCCC1CCC(NC(=O)Nc2ccc3[nH]c(Cl)cc3c2)CC1 (stereo not shown) [Compound 372]
3 | > 30 | – | O=C(NCCc1ccccc1Br)Nc1ccc2[nH]ccc2c1 [Compound 304]
4 | – | 5 to 100 | FC(F)(F)c1cccc(Nc2ccc3cc[nH]c3c2)n1 [Compound 609]
5 | – | 1 to 5 | Cc1ccc(CCNC(=O)Nc2ccc3cc[nH]c3c2)cc1C [Compound 186]
6 | – | 5 to 100 | Cc1nc(Nc2ccc3cc[nH]c3c2)ccc1Cl [Compound 595, N-(5-chloro-6-methylpyridin-2-yl)-1H-indol-6-amine]
7 | > 30 | – | c1cc2ccc(Nc3ccc4c(cnn4C4CCCCO4)n3)cc2[nH]1 (stereo not shown) [Compound 600, N-[1-(oxan-2-yl)-1H-pyrazolo[4,3-b]pyridin-5-yl]-1H-indol-6-amine]
8 | – | 0.2 to 1 | FC(F)(F)c1cc(Nc2ccc3cc[nH]c3c2)nc(Nc2ccc3cc[nH]c3c2)c1 [Compound 570, N2,N6-bis(1H-indol-6-yl)-4-(trifluoromethyl)pyridine-2,6-diamine]
9 | > 30 | – | N#Cc1cc(F)cc(NC(=O)Nc2ccc3cc[nH]c3c2)c1 [Compound 193]
10 | > 30 | – | N#Cc1cc(NC(=O)Nc2cnc(N3CC(F)(F)C3)c(F)c2)cc2[nH]ccc12 [Compound 511]
11 | – | 1 to 5 | O=C(Nc1ccc(C(F)(F)F)cc1)Nc1cc(-c2cn[nH]c2)c2cc[nH]c2c1 [Compound 167]
12 | > 30 | – | Cc1c(NC(=O)Nc2ccc(C(F)(F)F)cc2)ccc2cc[nH]c12 [Compound 259]
13 | > 30 | – | O=C(Nc1ccc2nc(C(F)(F)F)ccc2c1)Nc1ccc2[nH]ccc2c1 [Compound 287]
14 | > 30 | – | O=C(Nc1ccc(Cl)c(F)c1)Nc1ccc2[nH]ccc2c1 [Compound 341]
15 | – | 1 to 5 | CC(C)(C)c1cccc(Nc2ccc3cc[nH]c3c2)n1 [Compound 420, N-(6-(tert-butyl)pyridin-2-yl)-1H-indol-6-amine]
16 | – | 1 to 5 | O=C(NCCc1c(F)cccc1Cl)Nc1ccc2cc[nH]c2c1 [Compound 209]
17 | – | 1 to 5 | CNC(=O)OCCc1cc(NC(=O)Nc2ccc(C(F)(F)F)cc2)cc2[nH]ccc12 [Compound 512]
18 | > 30 | – | O=C(Nc1ccc2cc[nH]c2c1)Nc1ccno1 [Compound 191]
19 | – | 0.04 to 0.2 | O=C(Nc1ccc(C(F)(F)F)cc1)Nc1cc(Cl)c2cc[nH]c2c1 [Compound 251]
20 | – | 0.2 to 1 | O=C(NCc1cc(Cl)cc(C(F)(F)F)c1)Nc1ccc2cc[nH]c2c1 [Compound 205]
21 | – | 1 to 5 | O=C(NCc1ccc(Cl)c(C(F)(F)F)c1)Nc1ccc2cc[nH]c2c1 [Compound 207]
22 | > 30 | – | O=C(NCCc1c[nH]c2cc(OC(F)(F)F)ccc12)Nc1ccc2[nH]ccc2c1 [Compound 314]
23 | – | 5 to 100 | CN(C)CCc1cc(NC(=O)Nc2ccc(C(F)(F)F)cc2)cc2[nH]ccc12 [Compound 513]
24 | – | 0.04 to 0.2 | O=C(Nc1ccc(C(F)(F)F)c(F)c1)Nc1ccc2cc[nH]c2c1 [Compound 253]
25 | – | 1 to 5 | CCCCCNC(=O)Nc1ccc2cc[nH]c2c1 [Compound 188]
26 | – | 1 to 5 | O=c1c(Nc2ccc(C(F)(F)F)cc2)c(Nc2ccc3cc[nH]c3c2)c1=O [Compound 620]
27 | > 100 | – | CCc1ccc(NC(=O)Nc2ccc3c(NC(=O)Nc4ccc(CC)cc4)c[nH]c3c2)cc1 [Compound 261]
28 | > 30 | – | O=C(Nc1ccc2[nH]ccc2c1)NC1CCc2ccc(C(F)(F)F)cc21 (stereo not shown) [Compound 317]
